In paper PMC7459852, “Identification of 6-(piperazin-1-yl)-1,3,5-triazine as a chemical scaffold with broad anti-schistosomal activities” (Wellcome Open Research, 2020):
Where two headings read alike, the source gives them in different places.

Legend:
S. mansoni miracidia = test: Miracidia to sporocyst transformation screens; assay type: cell-based, Schistosoma mansoni; conditions: 10 µM, 48 h
Protocol: Following hatching of S. mansoni eggs, miracidia were incubated on ice for 15 min and then centrifuged at 700 x g for 5 min at 4°C. The miracidia pellet was then re-suspended in 5 ml of Chernin's balanced salt solution (CBSS), subjected to pelleting and two subsequent washes (all at 700 x g for 5 min at 4°C). Afterwards, the supernatant was carefully removed with a serological pipette and the miracidia-enriched pellet was resuspended with CBSS supplemented with 1 mg/ml each of glucose and trehalose and 500 µl of Penicillin-Streptomycin (containing 10,000 units penicillin and 10 mg streptomycin/ml, P4333, Sigma-Aldrich). In preparation for the screens, CBSS (250 µl) was aliquoted to each well of a 24-well plate followed by addition of each compound in DMSO (1 mM concentration in 1% DMSO) or DMSO alone (1%, negative control). Next, approximately 20-25 miracidia (in 250 µl of CBSS) were aliquoted to each well. […] Both preliminary and secondary screens were performed in duplicate on two separate occasions (two independent biological replicates). Miracidia were incubated for 48 h at 26°C before being evaluated using an Olympus inverted light microscope for morphological and behavioural changes differing from the control wells. Dead, partially transformed and fully transformed miracidia were enumerated in the DMSO control and the assay plates as previously described, [23], [59]. […] Absence of ciliated plates attached to the surface of the parasite and formation of sporocyst tegument defined the so-called “fully transformed” parasites.

S. mansoni schistosomula = test: Schistosomula screens (Roboworm, phenotype and motility); assay type: cell-based, Schistosoma mansoni; conditions: 72 h; for EC50: Schistosoma mansoni, dose response titrations (10 - 0.625 µM)
Protocol: Anthelmintic activity on the schistosomula stage of S. mansoni was evaluated using Roboworm, an integrated high-throughput, high content image analysis platform originally developed by Paveley et al. and subsequently used by our research group as previously described, [28], [50], [51]. Alternatively, the computer application Worminator can be used to assess motion of microscopic parasites such as the schistosomula stage of S. mansoni. Compounds (as single concentration or two-fold titrations) were prepared for screening in a 384-well plate (PerkinElmer, MA, USA), where solutions (1.6 mM, 0.5 μl) were wet stamped using the Biomek NX ^P liquid handling platform into Basch medium (20 μl). Negative (0.625% DMSO) and positive (Auranofin - AUR - at 10 µM final concentration in 0.625% DMSO) control wells were similarly prepared. Mechanically transformed schistosomula (about 120 parasites in 60 μl of Basch medium) were distributed into each treated well using a WellMate (Thermo Scientific, Loughborough, UK). Schistosomula/compound co-cultures were then incubated at 37°C for 72 h in a humidified atmosphere containing 5% CO 2. At 72 h, parasite/compound co-cultures were resuspended and tissue culture plates were imaged under the same conditions (37°C for 72 h in a humidified atmosphere containing 5% CO 2) using an ImageXpressXL high content imager (Molecular Devices, UK) with subsequent images processed for phenotype and motility as previously reported. Plate analysis returned a phenotype and motility score for each well and any scores below -0.15 and -0.35 (defined threshold anti-schistosomula values for phenotype and motility scores, respectively) defined a condition displaying anti-schistosomula activity. Compound screens were assessed based on the Z´ values (derived from the means and standard deviations of positive and negative controls) and those equal to or above 0.3 for both phenotype and motility were considered successful.
Phenotype and motility scores of each titration were used to generate dose response curves in GraphPad Prism 7.02 based on the corrected average score of the three replicates for each data point.

[1] = MTT cytotoxicity assay on HepG2 cells; assay type: cell-based, Human; conditions: human, HepG2 cells, MTT, 24 h; three dose response titrations (200 - 1 µM)
Protocol: (§1) Compound cytotoxicity on Human Hepatocyte Carcinoma (HepG2) cells (85011430, Sigma Aldrich) was elucidated by the MTT (3-(4,5-dimethylthiazol-2-yl)-2,5-diphenyltetrazolium bromide) tetrazolium reduction assay as previously described, [28], [50]. Briefly, HepG2 cells were seeded at a density of 20,000 per well in 96-well black, clear bottom falcon plate in modified BME medium (50 μl; containing 1% antibiotic/mycotic (Sigma-Aldrich, Gillingham, UK), 1% 200 mM L-glutammine (Gibco, Paisley, UK), 1% MEM non-essential amino acid solution (Gibco, Paisley, UK), and 10% fetal bovine serum (Gibco, Paisley, UK)). HepG2 plates seeded for cytotoxicity screens were treated with compounds 24 h post-seeding. Each compound was tested at 200, 100, 75, 50, 20, 10 and 1 µM; each concentration was assayed in triplicate. Blank wells (no cells), as well as positive (1% v/v Triton X-100, X100, Sigma-Aldrich) and negative (1.25% v/v DMSO or media only) controls, were included in each plate. After addition of compounds, each plate was then incubated for a further 20 h before application of MTT reagent for assessment of compound cytotoxicity (4 h incubation with MTT for a total 24 h cell-drug incubation). The absorbance reading at 570 nm was measured with a POLARstar Omega (BMG Labtech, UK) microtiter plate reader. Dose response curves were generated in GraphPad Prism 7.02 based on the corrected average absorbance of the three replicates for each concentration point.

HepG2 cells = test: MTT cytotoxicity assay on HepG2 cells; assay type: cell-based, Human
Protocol: as §1

S. mansoni adult worms = test: Adult worm screens (WormassayGP2 motility, egg count); assay type: cell-based, Schistosoma mansoni; conditions: 72 h
Protocol: For compound screening, adult worms (three worm pairs/well for compound 7 and the hit compounds of set two; one worm pair/well for the hit compounds of set three) were transferred into wells of a 48-well tissue culture plate containing 1 ml of adult worm media. Adult worms were treated with compounds previously identified as hits at 10 µM on 72 h cultured schistosomula. Worms were dosed with an appropriate volume of 10 mM stock solution of each compound (in DMSO) to have a concentration range of 50 – 6.25 µM (up to 0.5% DMSO, primary screen of compound 7). Secondary screens were performed on the structural analogues of compound 7 (only the schistosomula hits at 10 µM) at a single concentration (12.5 µM) and compared to the same concentration of the parental compound (included in the screen as reference). DMSO (0.5%) and praziquantel (10 µM in 0.5% DMSO) were also included as negative and positive control treatments (both primary and secondary screens). Treated adult worms were incubated for 72 h in a humidified environment at 5% CO 2 at 37°C. Parasite motility after drug treatment was assessed by a digital image processing-based system (WormassayGP2, see Software availability) modified after Wormassay, [56], [57]. Egg production was assessed according to the methodology described by Edwards et al..

Schistosoma mansoni [2] = system: Schistosoma mansoni; set-up: method as in PMID 24037106; conditions: cited from earlier work
Schistosoma mansoni [3] = system: Schistosoma mansoni; set-up: method as in PMID 24037106; conditions: cited from earlier work; remark: listed apart in the source

Row | EC50 (S. mansoni schistosomula; read-out: Schistosomula EC50 Motility) [µM] | EC50 (S. mansoni schistosomula; read-out: Schistosomula EC50 Phenotype) [µM] | SMILES | effect on miracidia (S. mansoni miracidia) | anti-schistosomula activity (hit on phenotype and motility) (S. mansoni schistosomula; 50 µM) | CC50 at 24 h [1] [µM] | CC50 (HepG2 cells; MTT, 24 h, three dose response titrations (200 - 1 µM)) [µM] | cytotoxicity on HepG2 cells (in words) (HepG2 cells; dose response titration) | adult worm motility and oviposition (S. mansoni adult worms; 6.25 µM, compared to compound 7) | adult worm egg production (S. mansoni adult worms; 12.5 µM) | adult worm motility compared to compound 7 (S. mansoni adult worms; 12.5 µM) | in vitro anti-schistosomal activity (Schistosoma mansoni [2]) | in vivo anti-schistosomal activity (Schistosoma mansoni [3])
1 | 2.79 | 3.06 | Cc1ccc(Nc2nc(C3CCCCC3)nc(N3CCNCC3)n2)cc1 [Compound 23] | readily killed miracidia | active at the highest concentration | < 10 | 6.73 | showed the highest toxicity | strong anthelmintic activities | greater potency than compound 7 | greater potency than compound 7 |  | 
2 |  |  | Cc1ccc(NC(=O)c2ccc(CN3CCN(C)CC3)cc2)cc1Nc1nccc(-c2cccnc2)n1 [Imatinib] |  |  |  |  |  |  |  |  | potent in vitro anti-schistosomal activity | lost in vivo
